The values that follow come from ChEMBL document CHEMBL3414527, “Engineering potent and selective analogues of GpTx-1, a tarantula venom peptide antagonist of the Na(V)1.7 sodium channel” (J Med Chem, 2015).

Experiment [1] concerns the target Sodium channel protein type 9 subunit alpha (Homo sapiens, UniProt Q15858). As to the kind of experiment: Inhibition of human NaV1.7 at -140 mV holding potential by whole-cell patch clamp assay. (Patch clamp records ionic current or voltage across a cell membrane.)
In experiment [2] the target is Sodium channel protein type 5 subunit alpha (Homo sapiens, UniProt Q14524). The experiment can be described thus: Inhibition of human NaV1.5 at -140 mV holding potential by whole-cell patch clamp assay.
Sequence of Sodium channel protein type 5 subunit alpha (Q14524 whole entry): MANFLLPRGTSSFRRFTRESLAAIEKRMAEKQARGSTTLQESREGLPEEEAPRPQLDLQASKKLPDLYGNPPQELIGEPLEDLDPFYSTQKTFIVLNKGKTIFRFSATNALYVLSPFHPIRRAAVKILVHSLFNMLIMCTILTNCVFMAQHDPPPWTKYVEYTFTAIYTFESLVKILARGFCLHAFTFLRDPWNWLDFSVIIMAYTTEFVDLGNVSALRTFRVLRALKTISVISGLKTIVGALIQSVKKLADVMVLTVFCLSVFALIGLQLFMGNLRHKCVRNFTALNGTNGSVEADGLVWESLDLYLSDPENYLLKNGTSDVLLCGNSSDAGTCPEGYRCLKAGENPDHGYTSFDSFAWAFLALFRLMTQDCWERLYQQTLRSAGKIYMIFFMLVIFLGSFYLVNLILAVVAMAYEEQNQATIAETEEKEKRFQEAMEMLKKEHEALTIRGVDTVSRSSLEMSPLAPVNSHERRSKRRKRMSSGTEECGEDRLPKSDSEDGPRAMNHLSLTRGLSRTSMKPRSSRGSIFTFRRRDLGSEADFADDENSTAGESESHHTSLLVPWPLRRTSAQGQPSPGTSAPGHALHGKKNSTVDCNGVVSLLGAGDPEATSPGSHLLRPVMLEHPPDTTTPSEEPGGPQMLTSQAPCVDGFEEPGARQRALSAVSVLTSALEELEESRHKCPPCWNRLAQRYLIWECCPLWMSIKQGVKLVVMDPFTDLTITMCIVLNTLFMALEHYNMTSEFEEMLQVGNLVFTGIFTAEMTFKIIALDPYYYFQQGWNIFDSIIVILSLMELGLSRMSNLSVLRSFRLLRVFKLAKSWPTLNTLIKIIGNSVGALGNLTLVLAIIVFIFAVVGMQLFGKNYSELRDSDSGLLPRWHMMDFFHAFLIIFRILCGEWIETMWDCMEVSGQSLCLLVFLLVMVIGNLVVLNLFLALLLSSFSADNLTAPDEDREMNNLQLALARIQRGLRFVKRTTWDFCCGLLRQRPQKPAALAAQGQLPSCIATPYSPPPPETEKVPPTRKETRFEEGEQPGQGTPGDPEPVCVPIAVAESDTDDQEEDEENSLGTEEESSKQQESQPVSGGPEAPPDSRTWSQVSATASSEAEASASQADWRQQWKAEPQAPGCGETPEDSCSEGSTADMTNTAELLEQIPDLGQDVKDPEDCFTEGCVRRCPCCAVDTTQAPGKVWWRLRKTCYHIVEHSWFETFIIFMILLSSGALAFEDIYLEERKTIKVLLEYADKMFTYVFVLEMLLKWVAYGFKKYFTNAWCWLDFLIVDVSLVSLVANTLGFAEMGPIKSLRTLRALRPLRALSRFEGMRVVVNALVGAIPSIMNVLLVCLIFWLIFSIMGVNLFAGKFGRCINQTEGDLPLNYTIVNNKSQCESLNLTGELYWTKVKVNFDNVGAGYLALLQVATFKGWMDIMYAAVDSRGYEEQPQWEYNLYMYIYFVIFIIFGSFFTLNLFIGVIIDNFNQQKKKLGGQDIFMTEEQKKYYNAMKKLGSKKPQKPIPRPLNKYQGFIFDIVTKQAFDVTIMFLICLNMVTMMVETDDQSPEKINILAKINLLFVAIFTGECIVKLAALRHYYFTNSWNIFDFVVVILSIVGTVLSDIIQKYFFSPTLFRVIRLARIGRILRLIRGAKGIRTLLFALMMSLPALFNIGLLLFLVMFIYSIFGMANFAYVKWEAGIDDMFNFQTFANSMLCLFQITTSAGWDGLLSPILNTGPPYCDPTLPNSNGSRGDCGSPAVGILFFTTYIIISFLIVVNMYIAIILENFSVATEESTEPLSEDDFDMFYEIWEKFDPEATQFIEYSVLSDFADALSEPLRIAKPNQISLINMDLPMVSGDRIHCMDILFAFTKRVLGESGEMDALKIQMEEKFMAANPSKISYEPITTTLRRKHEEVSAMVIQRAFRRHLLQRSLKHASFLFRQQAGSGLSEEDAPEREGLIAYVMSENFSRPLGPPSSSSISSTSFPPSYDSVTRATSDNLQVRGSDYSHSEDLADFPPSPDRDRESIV

Bridge positions count the residues as written; N and C are the ends. Peptide text beside a SMILES is read from it.

Sequence of Sodium channel protein type 9 subunit alpha (Q15858 whole entry): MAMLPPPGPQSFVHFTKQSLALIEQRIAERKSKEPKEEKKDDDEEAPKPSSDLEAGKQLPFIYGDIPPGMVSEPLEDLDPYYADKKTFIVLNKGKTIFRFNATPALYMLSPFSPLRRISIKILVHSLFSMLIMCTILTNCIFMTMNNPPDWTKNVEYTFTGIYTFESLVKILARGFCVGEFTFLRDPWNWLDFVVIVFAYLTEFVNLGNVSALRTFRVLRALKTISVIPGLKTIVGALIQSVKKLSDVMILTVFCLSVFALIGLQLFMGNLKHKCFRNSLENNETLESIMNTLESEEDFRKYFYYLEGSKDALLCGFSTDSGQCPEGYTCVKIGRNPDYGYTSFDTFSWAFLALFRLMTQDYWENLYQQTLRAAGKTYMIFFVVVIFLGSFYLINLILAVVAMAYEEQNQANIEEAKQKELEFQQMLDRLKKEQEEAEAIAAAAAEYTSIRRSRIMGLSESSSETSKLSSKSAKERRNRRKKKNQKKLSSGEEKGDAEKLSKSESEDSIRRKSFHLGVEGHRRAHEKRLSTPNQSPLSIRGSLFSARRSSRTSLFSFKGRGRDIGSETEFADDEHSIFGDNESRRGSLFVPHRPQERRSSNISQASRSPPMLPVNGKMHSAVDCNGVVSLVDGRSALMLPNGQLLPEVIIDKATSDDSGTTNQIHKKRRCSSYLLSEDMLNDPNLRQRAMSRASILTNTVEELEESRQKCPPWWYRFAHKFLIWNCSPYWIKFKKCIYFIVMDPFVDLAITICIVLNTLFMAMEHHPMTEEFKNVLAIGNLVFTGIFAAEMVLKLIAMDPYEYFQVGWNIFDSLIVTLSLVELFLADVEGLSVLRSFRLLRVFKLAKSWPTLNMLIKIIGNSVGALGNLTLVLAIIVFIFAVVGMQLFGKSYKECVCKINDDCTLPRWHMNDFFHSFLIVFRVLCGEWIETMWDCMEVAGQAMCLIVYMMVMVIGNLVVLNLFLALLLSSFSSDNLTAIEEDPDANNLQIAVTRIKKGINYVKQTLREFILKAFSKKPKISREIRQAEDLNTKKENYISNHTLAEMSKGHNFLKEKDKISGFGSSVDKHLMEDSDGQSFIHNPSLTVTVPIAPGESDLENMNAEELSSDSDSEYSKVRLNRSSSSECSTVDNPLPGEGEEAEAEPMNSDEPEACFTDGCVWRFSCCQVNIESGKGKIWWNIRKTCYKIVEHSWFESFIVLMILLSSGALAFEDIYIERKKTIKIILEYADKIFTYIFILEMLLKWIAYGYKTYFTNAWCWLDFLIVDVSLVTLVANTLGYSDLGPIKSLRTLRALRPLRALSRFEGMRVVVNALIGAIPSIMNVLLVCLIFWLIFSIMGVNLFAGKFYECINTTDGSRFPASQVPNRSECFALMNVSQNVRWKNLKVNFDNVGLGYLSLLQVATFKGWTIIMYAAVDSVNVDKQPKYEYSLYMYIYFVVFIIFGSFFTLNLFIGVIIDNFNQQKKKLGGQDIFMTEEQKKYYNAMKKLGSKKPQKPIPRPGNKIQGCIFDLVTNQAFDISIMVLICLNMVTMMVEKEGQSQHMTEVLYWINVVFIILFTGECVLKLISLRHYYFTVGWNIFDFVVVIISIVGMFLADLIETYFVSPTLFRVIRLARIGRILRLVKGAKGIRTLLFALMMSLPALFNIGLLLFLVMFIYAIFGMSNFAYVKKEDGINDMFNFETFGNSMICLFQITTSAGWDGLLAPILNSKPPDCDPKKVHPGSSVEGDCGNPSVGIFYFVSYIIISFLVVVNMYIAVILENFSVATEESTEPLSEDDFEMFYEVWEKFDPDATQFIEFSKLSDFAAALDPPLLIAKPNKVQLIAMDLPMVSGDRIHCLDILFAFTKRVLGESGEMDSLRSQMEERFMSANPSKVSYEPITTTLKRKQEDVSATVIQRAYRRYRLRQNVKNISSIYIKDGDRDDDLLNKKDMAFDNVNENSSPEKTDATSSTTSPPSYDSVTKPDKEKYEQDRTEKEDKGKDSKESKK

On to `CC[C@H](C)[C@@H]1NC(=O)[C@@H]2CSSC[C@@H]3NC(=O)[C@H](C(C)C)NC(=O)[C@H](C)NC(=O)[C@H](CC(N)=O)NC(=O)[C@@H]4CCCN4C(=O)[C@H](CCCNC(=N)N)NC(=O)[C@H](CSSC[C@H](NC(=O)[C@@H](N)CC(=O)O)C(=O)N[C@@H](CC(C)C)C(=O)NCC(=O)N[C@@H](Cc4ccccc4)C(=O)N[C@@H](CCSC)C(=O)N[C@@H](CCCNC(=N)N)C(=O)N[C@@H](CCCCN)C(=O)N2)NC(=O)[C@H](CSSC[C@@H](C(=O)N[C@@H](CCCCN)C(=O)N[C@@H](Cc2ccc(O)cc2)C(=O)N[C@H](C(=O)N[C@@H](Cc2ccccc2)C(N)=O)C(C)C)NC(=O)[C@H](Cc2c[nH]c4ccccc24)NC(=O)[C@H](CCCCN)NC(=O)[C@H](Cc2cnc[nH]2)NC(=O)[C@H]([C@@H](C)O)NC(=O)[C@H](CCCNC(=N)N)NC(=O)[C@H](CO)NC3=O)NC(=O)[C@H](CCCCN)NC(=O)[C@H](CC(=O)O)NC(=O)[C@H](CC(N)=O)NC(=O)[C@H](CC(=O)O)NC(=O)[C@@H]2CCCN2C1=O` (H-DCLGFMRKCIPDNDKCCRPNAVCSRTHKWCKYVF-NH2; disulfide 2-17, 9-23, 16-30), for which the half-inhibitory concentration (IC50) – broadly, the point on the concentration scale where inhibition reaches its midpoint – in experiment [1] is 190 nM; in experiment [2], > 20000 nM.
Take `CC[C@H](C)[C@@H]1NC(=O)[C@@H]2CSSC[C@@H]3NC(=O)[C@H](C(C)C)NC(=O)[C@H](CC(C)C)NC(=O)[C@H](CC(N)=O)NC(=O)[C@@H]4CCCN4C(=O)[C@H](CCCNC(=N)N)NC(=O)[C@H](CSSC[C@H](NC(=O)[C@@H](N)CC(=O)O)C(=O)N[C@@H](CC(C)C)C(=O)NCC(=O)N[C@@H](Cc4ccccc4)C(=O)N[C@@H](C)C(=O)N[C@@H](CCCNC(=N)N)C(=O)N[C@@H](CCCCN)C(=O)N2)NC(=O)[C@H](CSSC[C@@H](C(=O)N[C@@H](CCCCN)C(=O)N[C@@H](Cc2ccc(O)cc2)C(=O)N[C@H](C(=O)N[C@@H](Cc2ccccc2)C(N)=O)C(C)C)NC(=O)[C@H](Cc2c[nH]c4ccccc24)NC(=O)[C@H](CCCCN)NC(=O)[C@H](Cc2cnc[nH]2)NC(=O)[C@H]([C@@H](C)O)NC(=O)[C@H](CCCNC(=N)N)NC(=O)[C@H](CO)NC3=O)NC(=O)[C@H](CCCCN)NC(=O)[C@H](CC(=O)O)NC(=O)[C@H](CC(N)=O)NC(=O)[C@H](CC(=O)O)NC(=O)[C@@H]2CCCN2C1=O` (H-DCLGFARKCIPDNDKCCRPNLVCSRTHKWCKYVF-NH2; disulfide 2-17, 9-23, 16-30): the IC50 in experiment [1] is 430 nM; in experiment [2] it was > 5000 nM.
`CC[C@H](C)[C@@H]1NC(=O)[C@@H]2CSSC[C@@H]3NC(=O)[C@H](C(C)C)NC(=O)[C@H](CC(C)C)NC(=O)[C@H](CC(N)=O)NC(=O)[C@@H]4CCCN4C(=O)[C@H](CCCNC(=N)N)NC(=O)[C@H](CSSC[C@H](NC(=O)[C@@H](N)CC(=O)O)C(=O)N[C@@H](CC(C)C)C(=O)NCC(=O)N[C@@H](C4CCCCC4)C(=O)N[C@@H](CCSC)C(=O)N[C@@H](CCCNC(=N)N)C(=O)N[C@@H](CCCCN)C(=O)N2)NC(=O)[C@H](CSSC[C@@H](C(=O)N[C@@H](CCCCN)C(=O)N[C@@H](Cc2ccc(O)cc2)C(=O)N[C@H](C(=O)N[C@@H](Cc2ccccc2)C(N)=O)C(C)C)NC(=O)[C@H](Cc2c[nH]c4ccccc24)NC(=O)[C@H](CCCCN)NC(=O)[C@H](Cc2cnc[nH]2)NC(=O)[C@H]([C@@H](C)O)NC(=O)[C@H](CCCNC(=N)N)NC(=O)[C@H](CO)NC3=O)NC(=O)[C@H](CCCCN)NC(=O)[C@H](CC(=O)O)NC(=O)[C@H](CC(N)=O)NC(=O)[C@H](CC(=O)O)NC(=O)[C@@H]2CCCN2C1=O`: the IC50 is 6 nM in experiment [1] and > 10000 nM in experiment [2].
On to `CC[C@H](C)[C@@H]1NC(=O)[C@@H]2CSSC[C@@H]3NC(=O)[C@H](C(C)C)NC(=O)[C@H](CC(C)C)NC(=O)[C@H](CC(N)=O)NC(=O)[C@@H]4CCCN4C(=O)[C@H](CCCNC(=N)N)NC(=O)[C@H](CSSC[C@H](NC(=O)[C@@H](N)CC(=O)O)C(=O)N[C@@H](CC(C)C)C(=O)NCC(=O)N[C@@H](Cc4ccccc4)C(=O)N[C@@H](CCSC)C(=O)N[C@@H](CCCNC(=N)N)C(=O)N[C@@H](CCCCN)C(=O)N2)NC(=O)[C@H](CSSC[C@@H](C(=O)N[C@@H](CCCCN)C(=O)N[C@@H](Cc2ccc(O)cc2)C(=O)N[C@H](C(=O)N[C@@H](Cc2ccccc2)C(N)=O)C(C)C)NC(=O)[C@H](Cc2c[nH]c4ccccc24)NC(=O)[C@H](CCCCN)NC(=O)[C@H](Cc2cnc[nH]2)NC(=O)[C@H](C)NC(=O)[C@H](CCCNC(=N)N)NC(=O)[C@H](CO)NC3=O)NC(=O)[C@H](CCCCN)NC(=O)[C@H](CC(=O)O)NC(=O)[C@H](CC(N)=O)NC(=O)[C@H](CC(=O)O)NC(=O)[C@@H]2CCCN2C1=O` (H-DCLGFMRKCIPDNDKCCRPNLVCSRAHKWCKYVF-NH2; disulfide 2-17, 9-23, 16-30), for which the IC50 in experiment [1] is 260 nM; in experiment [2], > 5000 nM.
As to `CCC[C@@H]1NC(=O)CNC(=O)[C@H](CC(C)C)NC(=O)[C@@H](NC(=O)[C@@H](N)CC(=O)O)CSSC[C@@H]2NC(=O)[C@@H]3CSSC[C@@H](C(=O)N[C@@H](CCCCN)C(=O)N[C@@H](Cc4ccc(O)cc4)C(=O)N[C@H](C(=O)N[C@@H](Cc4ccccc4)C(N)=O)C(C)C)NC(=O)[C@H](Cc4c[nH]c5ccccc45)NC(=O)[C@H](CCCCN)NC(=O)[C@H](Cc4cnc[nH]4)NC(=O)[C@H]([C@@H](C)O)NC(=O)[C@H](CCCNC(=N)N)NC(=O)[C@H](CO)NC(=O)[C@H](CSSC[C@H](NC(=O)[C@H](CCCCN)NC(=O)[C@H](CCCNC(=N)N)NC(=O)[C@H](CCSC)NC1=O)C(=O)N[C@@H]([C@@H](C)CC)C(=O)N1CCC[C@H]1C(=O)N[C@@H](CC(=O)O)C(=O)N[C@@H](CC(N)=O)C(=O)N[C@@H](CC(=O)O)C(=O)N[C@@H](CCCCN)C(=O)N3)NC(=O)[C@H](C(C)C)NC(=O)[C@H](CC(C)C)NC(=O)[C@H](CC(N)=O)NC(=O)[C@@H]1CCCN1C(=O)[C@H](CCCNC(=N)N)NC2=O`, the IC50 in experiment [1] was 39 nM; in experiment [2], > 10000 nM.
For the compound `CC[C@H](C)[C@@H]1NC(=O)[C@@H]2CSSC[C@@H]3NC(=O)[C@H](C(C)C)NC(=O)[C@H](CC(C)C)NC(=O)[C@H](CC(N)=O)NC(=O)[C@@H]4CCCN4C(=O)[C@H](C)NC(=O)[C@H](CSSC[C@H](NC(=O)[C@@H](N)CC(=O)O)C(=O)N[C@@H](CC(C)C)C(=O)NCC(=O)N[C@@H](Cc4ccccc4)C(=O)N[C@@H](CCSC)C(=O)N[C@@H](CCCNC(=N)N)C(=O)N[C@@H](CCCCN)C(=O)N2)NC(=O)[C@H](CSSC[C@@H](C(=O)N[C@@H](CCCCN)C(=O)N[C@@H](Cc2ccc(O)cc2)C(=O)N[C@H](C(=O)N[C@@H](Cc2ccccc2)C(N)=O)C(C)C)NC(=O)[C@H](Cc2c[nH]c4ccccc24)NC(=O)[C@H](CCCCN)NC(=O)[C@H](Cc2cnc[nH]2)NC(=O)[C@H]([C@@H](C)O)NC(=O)[C@H](CCCNC(=N)N)NC(=O)[C@H](CO)NC3=O)NC(=O)[C@H](CCCCN)NC(=O)[C@H](CC(=O)O)NC(=O)[C@H](CC(N)=O)NC(=O)[C@H](CC(=O)O)NC(=O)[C@@H]2CCCN2C1=O` (H-DCLGFMRKCIPDNDKCCAPNLVCSRTHKWCKYVF-NH2; disulfide 2-17, 9-23, 16-30), the values for the IC50 in experiment [1] and in experiment [2] were 130 nM and > 20000 nM, respectively.
